Assay results reported in PubChem BioAssay AID248 (DTP/NCI, 2004).
Inconclusive results and toxic doses are left out. No stated cut-off is given here; in the data, active means T/C of 150% or more; inactive means T/C below 125%.

System: L1210 leukemia ip in BDF1 mice, survival T/C
Test: NCI In Vivo Anticancer Drug Screen. Data for tumor model L1210 Leukemia (intraperitoneal) in B6D2F1 (BDF1) mice
Conditions: endpoint: mean survival time, higher = longer survival
How it was run: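 Survival endpoint. Drug-treated group vs vehicle group, expressed as T divided by C. Tumor passaged by transplantation.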

[1] = dose: 100.0 mg/kg/injection, schedule: Q04DX002 (ip), vehicle: Klucel (hydroxypropylcellulose) (HPC)
[2] = dose: 200.0 mg/kg/injection, schedule: Q04DX002 (ip), vehicle: Klucel (hydroxypropylcellulose) (HPC)
[3] = dose: 400.0 mg/kg/injection, schedule: Q04DX002 (ip), vehicle: Klucel (hydroxypropylcellulose) (HPC)
[4] = dose: 100.0 mg/kg/injection, schedule: Q01DX001 (ip), vehicle: saline
[5] = dose: 200.0 mg/kg/injection, schedule: Q01DX001 (ip), vehicle: saline
[6] = dose: 100.0 mg/kg/injection, schedule: Q04DX003 (ip), vehicle: saline
[7] = dose: 200.0 mg/kg/injection, schedule: Q04DX003 (ip), vehicle: saline
[8] = dose: 50.0 mg/kg/injection, schedule: Q01DX009 (ip), vehicle: saline with Tween-80
[9] = dose: 100.0 mg/kg/injection, schedule: Q01DX009 (ip), vehicle: saline with Tween-80
[10] = dose: 200.0 mg/kg/injection, schedule: Q01DX009 (ip), vehicle: saline with Tween-80
[11] = dose: 400.0 mg/kg/injection, schedule: Q01DX009 (ip), vehicle: saline with Tween-80
[12] = dose: 100.0 mg/kg/injection, schedule: Q04DX003 (ip), vehicle: saline with Tween-80
[13] = dose: 200.0 mg/kg/injection, schedule: Q04DX003 (ip), vehicle: saline with Tween-80
[14] = dose: 400.0 mg/kg/injection, schedule: Q04DX003 (ip), vehicle: saline with Tween-80
[15] = dose: 400.0 mg/kg/injection, schedule: Q04DX003 (ip), vehicle: saline
[16] = dose: 12.5 mg/kg/injection, schedule: Q04DX003 (ip), vehicle: saline
[17] = dose: 25.0 mg/kg/injection, schedule: Q01DX009 (ip), vehicle: Klucel (hydroxypropylcellulose) (HPC)
[18] = dose: 25.0 mg/kg/injection, schedule: Q04DX003 (ip), vehicle: saline
[19] = dose: 50.0 mg/kg/injection, schedule: Q01DX009 (ip), vehicle: Klucel (hydroxypropylcellulose) (HPC)
[20] = dose: 50.0 mg/kg/injection, schedule: Q04DX003 (ip), vehicle: saline
[21] = dose: 100.0 mg/kg/injection, schedule: Q01DX009 (ip), vehicle: Klucel (hydroxypropylcellulose) (HPC)
[22] = dose: 200.0 mg/kg/injection, schedule: Q01DX009 (ip), vehicle: Klucel (hydroxypropylcellulose) (HPC)
[23] = dose: 100.0 mg/kg/injection, schedule: Q04DX003 (ip), vehicle: Klucel (hydroxypropylcellulose) (HPC)
[24] = dose: 200.0 mg/kg/injection, schedule: Q04DX003 (ip), vehicle: Klucel (hydroxypropylcellulose) (HPC)
[25] = dose: 400.0 mg/kg/injection, schedule: Q01DX009 (ip), vehicle: Klucel (hydroxypropylcellulose) (HPC)
[26] = dose: 400.0 mg/kg/injection, schedule: Q04DX003 (ip), vehicle: Klucel (hydroxypropylcellulose) (HPC)

Measured: T/C

CCS(=O)(=O)N1CC(C)OC(C)C1 (stereo not given)
inactive: [1] 96 % of control | [2] 103 % of control | [3] 107 % of control

C1CCC2(CC1)SCCCS2
inactive: [4] 102 % of control | [5] 113 % of control | dose: 400.0 mg/kg/injection, schedule: Q01DX001 (ip), vehicle: saline 110 % of control

CCCCCCCCC[n+]1cccc(C(=O)c2ccccc2)c1
inactive: dose: 9.38 mg/kg/injection, schedule: Q01DX001 (ip), vehicle: saline 98 % of control | dose: 18.75 mg/kg/injection, schedule: Q01DX001 (ip), vehicle: saline 100 % of control | dose: 37.5 mg/kg/injection, schedule: Q01DX001 (ip), vehicle: saline 105 % of control

CCOc1ccc(/C=N/Nc2c3ccccc3nc3ccccc23)cc1OCC
inactive: [4] 92 % of control | [5] 95 % of control

CCC(C)C(CCN1CCCCC1)(CNC(=O)CN(CC)CC)c1cccc2ccccc12 (stereo not given)
inactive: [6] 103 % of control | [7] 103 % of control

O=C(Nc1ccccc1)C1=C(Nc2ccccc2)CSC1
inactive: dose: 25.0 mg/kg/injection, schedule: Q01DX009 (ip), vehicle: saline with Tween-80 109 % of control | [8] 100 % of control | [9] 94 % of control | [10] 98 % of control | [11] 89 % of control

COC(=O)C1=CCC=CC1
inactive: [12] 102 % of control | [13] 96 % of control | [14] 93 % of control

CCC12CCCN3C(=O)CC(C(=O)CC1)C32 (stereo not given)
inactive: [6] 107 % of control

O=C(O)/C=C/c1nc2ccccc2nc1-c1ccccc1
inactive: [1] 101 % of control | [2] 113 % of control | [3] 101 % of control

CC1=CC(O)CCC1 (stereo not given)
inactive: [12] 104 % of control | [13] 109 % of control | [14] 93 % of control

COC(=O)C(=O)CC(=O)c1cccc(Cl)c1
inactive: dose: 10.0 mg/kg/injection, schedule: Q04DX002 (ip), vehicle: Klucel (hydroxypropylcellulose) (HPC) 92 % of control | dose: 20.0 mg/kg/injection, schedule: Q04DX002 (ip), vehicle: Klucel (hydroxypropylcellulose) (HPC) 96 % of control | dose: 40.0 mg/kg/injection, schedule: Q04DX002 (ip), vehicle: Klucel (hydroxypropylcellulose) (HPC) 105 % of control

O=C1C(N2CC2)=C(N2CC2)C(=O)C(N2CC2)=C1N1CC1
inactive: dose: 0.12 mg/kg/injection, schedule: Q01DX001 (ip), vehicle: saline 112 % of control

Cc1ccc(NC(=O)/C=C/C(=O)Nc2ccc(C)cc2)cc1
inactive: [6] 103 % of control | [7] 100 % of control | [15] 103 % of control

Cc1ncc(CO)c(/C=N/OCc2ccc(OCc3ccccc3)cc2)c1O
inactive: [12] 102 % of control | [13] 100 % of control

COc1ccc2c3csc4ccccc4c-3nc2c1
inactive: dose: 12.5 mg/kg/injection, schedule: Q01DX009 (ip), vehicle: saline 98 % of control | [16] 95 % of control | [17] 111 % of control | dose: 25.0 mg/kg/injection, schedule: Q01DX009 (ip), vehicle: saline 98 % of control | [18] 95 % of control | [19] 100 % of control | [20] 94 % of control

COc1ccc2c(c1)CCC1C2CCC2(C)C(=O)C(n3cnc4c(=S)nc[nH]c43)CC12 (stereo not given)
inactive: dose: 100.0 mg/kg/injection, schedule: Q01DX001 (sc), vehicle: steriod suspending solution 106 % of control | dose: 200.0 mg/kg/injection, schedule: Q01DX001 (sc), vehicle: steriod suspending solution 110 % of control | dose: 400.0 mg/kg/injection, schedule: Q01DX001 (sc), vehicle: steriod suspending solution 110 % of control

COCCCCO
inactive: [8] 97 % of control | [9] 97 % of control | [10] 90 % of control

COc1ccc(C=C2C(=O)NC(=O)NC2=O)cc1OC
inactive: [19] 92 % of control | [21] 96 % of control | [22] 96 % of control

O=S1(=O)CC23CCC2(COC3)C1 (stereo not given)
inactive: [16] 97 % of control | [18] 94 % of control | [20] 92 % of control

COc1cccc(C(=O)c2ccccc2NC(C)=O)c1
inactive: [12] 93 % of control | [13] 94 % of control | [14] 93 % of control

C1=C(c2ccccc2)N2CCN=C2S1
inactive: dose: 50.0 mg/kg/injection, schedule: Q01DX001 (ip), vehicle: carboxymethylcellulose (CMC) 100 % of control

CC(=O)NC(c1ccccc1)C(NC(=O)c1ccccc1)c1ccccc1 (stereo not given)
inactive: dose: 100.0 mg/kg/injection, schedule: Q01DX001 (ip), vehicle: saline with Tween-80 92 % of control | dose: 200.0 mg/kg/injection, schedule: Q01DX001 (ip), vehicle: saline with Tween-80 94 % of control | dose: 400.0 mg/kg/injection, schedule: Q01DX001 (ip), vehicle: saline with Tween-80 89 % of control

Cc1noc2ncnc(N)c12
inactive: [17] 102 % of control | [19] 102 % of control | [21] 95 % of control

O=C(NCCNC(=O)Nc1ccc(Cl)cc1)Nc1ccc(Cl)cc1
inactive: [21] 96 % of control | [23] 98 % of control | [22] 94 % of control | [24] 93 % of control | [25] 91 % of control | [26] 92 % of control

COC(=O)c1ccccc1NC(=O)Nc1ccccc1Cl
inactive: [19] 88 % of control | [21] 88 % of control | [23] 89 % of control | [24] 92 % of control

CNC(=O)Nc1ccc(OC)cc1
inactive: [21] 96 % of control | [23] 110 % of control | [22] 100 % of control | [24] 107 % of control | [25] 102 % of control | [26] 105 % of control

N=C(N)c1ccc(-c2cc(-c3ccc(C(=N)N)cc3)on2)cc1
inactive: dose: 6.25 mg/kg/injection, schedule: Q04DX003 (ip), vehicle: saline 100 % of control | [16] 103 % of control | [18] 108 % of control

O=C(O)C1C2C=CC(CO)(O2)C1C(=O)O (stereo not given)
inactive: dose: 100.0 mg/kg/injection, schedule: Q01DX009 (ip), vehicle: saline 97 % of control | [6] 97 % of control | dose: 200.0 mg/kg/injection, schedule: Q01DX009 (ip), vehicle: saline 100 % of control | [7] 92 % of control | dose: 400.0 mg/kg/injection, schedule: Q01DX009 (ip), vehicle: saline 96 % of control | [15] 95 % of control

O=C(COc1ccc(Cl)cc1Cl)NC(O)C(Cl)(Cl)Cl (stereo not given)
inactive: [9] 94 % of control | [12] 100 % of control | [10] 87 % of control | [13] 97 % of control | [11] 89 % of control | [14] 94 % of control

CC(C)(C)c1cccc(OS(=O)(=O)c2cccc([N+](=O)[O-])c2)c1
inactive: [12] 95 % of control | [13] 100 % of control | [14] 100 % of control
